Measured values: patent publication US10544186B2, “Process for the synthesis of amide bonds with the aid of novel catalysts” (Merck Patent GmbH, priority 2016, dated 2020)
Counter-ions that a name gives are not always drawn. Like-named read-outs stand apart in the source and are kept apart here.

Tests used:
[1] = Solubility of the amide linking reagents in organic solvents; format: physicochemical; conditions: for solubility: organic solvent or mixture, thermodynamic from solid
Experimental: All solubility determinations are carried out in a tared gas-tight 4 ml bottle with magnetic stirrer bar. The amide linking reagent (at least 5 mg) is weighed out and a certain amount of the solvent to be investigated is added. The mixture is stirred for 2-5 minutes. If undissolved solid is still present, solvent (50-100 μl) is additionally added, and the mixture is stirred again. As soon as a clear solution is present, the experiment is terminated.

[2] = solvent 9CH2Cl2:1CH3CN, read-out: solubility in 9CH2Cl2:1CH3CN
[3] = solvent CH2Cl2, read-out: solubility in CH2Cl2
[4] = solvent CH3CN, read-out: solubility in CH3CN
[5] = solvent DMF, read-out: solubility in DMF
[6] = solvent Hexane, read-out: solubility in Hexane
[7] = solvent THF, read-out: solubility in THF
[8] = solvent Toluene, read-out: solubility in Toluene

solubility in 9CH2Cl2:1CH3CN ([1]; solvent 9CH2Cl2:1CH3CN) [mg/mL] | solubility in CH2Cl2 ([1]; solvent CH2Cl2) [mg/mL] | solubility in CH3CN ([1]; solvent CH3CN) [mg/mL] | solubility in DMF ([1]; solvent DMF) [mg/mL] | solubility in Hexane ([1]; solvent Hexane) [mg/mL] | solubility in THF ([1]; solvent THF) [mg/mL] | solubility in Toluene ([1]; solvent Toluene) [mg/mL] | solubility in the nonpolar solvents hexane and toluene compared with the BF4/PF6 analogue ([1]; hexane and toluene) | Compound | solubility [1, 2] [mg/mL] | solubility [1, 3] [mg/mL] | solubility [1, 4] [mg/mL] | solubility [1, 5] [mg/mL] | solubility [1, 6] [mg/mL] | solubility [1, 7] [mg/mL] | solubility [1, 8] [mg/mL] | melting point
>1500 | >1650 | >1550 | >1550 | <1.2 | >1500 | 5.0 |  | (Benzotriazol-1-yloxy)tris(pyrrolidino)phosphonium tris(pentafluoroethyl)trifluorophosphate [PyBOP-FAP] |  |  |  |  |  |  |  | 
67 | <1.2 | >2000 | >2000 | <1.2 | 670 | <1.2 |  | 1-(Dimethylamino(dimethylammonium-1-yliden)methyl)-1H-azabenzo-[d][1,2,3]triazole 3-oxide tris(pentafluoroethyl)trifluorophosphate [ATU-FAP] |  |  |  |  |  |  |  | 
>2000 | 1000 | >2000 | >2000 | <1.2 | 1000 | <1.2 |  | O-Pentafluorophenyl-N,N,N′,N′-tetramethyluronium tris(pentafluoroethyl)trifluorophosphate [PfTU-FAP] |  |  |  |  |  |  |  | 
2.9 | <1.2 | 265 | 220 | <1.2 | <1.2 | <1.2 |  | CN(C)C(ON1C(=O)CCC1=O)=[N+](C)C.F[B-](F)(F)F [TSTU, O—(N-succinimidyl)-N,N,N′,N′-tetramethyluronium tetrafluoroborate, reference compound] |  |  |  |  |  |  |  | 
480 | >780 | >860 | >1125 | <1.2 | >780 | <1.2 |  | O-(3,4-Dihydro-4-oxo-1,2,3-benzotriazin-3-yl)-N,N,N,N′-tetramethyluronium tris(pentafluoroethyl)trifluorophosphate [DBTU-FAP] |  |  |  |  |  |  |  | 
120 | 6.9 | >1040 | >1200 | <1.2 | 364 | <1.2 |  | 1-(Dimethylamino(dimethylammonium-1-ylidene)methyl)-1H-benzo[d]-1,2,3-triazole 3-oxide tris(pentafluoroethyl)trifluorophosphate [BTU-FAP] |  |  |  |  |  |  |  | 
 |  |  |  |  |  |  | solubility improvement | CCOC(=O)/C(C#N)=N/OC(N1CCOCC1)=[N+](C)C [COMU-FAP, (1-Cyano-2-ethoxy-2-oxoethylideneaminooxy)dimethylaminomorpholinocarbenium tris(pentafluoroethyl)trifluorophosphate] | > 2000 | 180 | 905 | > 1500 | 2.1 | 349 | 4.5 | 

The remaining lines, values behind:

Compound | solubility in 9CH2Cl2:1CH3CN ([1]; solvent 9CH2Cl2:1CH3CN) [mg/mL] | solubility in CH2Cl2 ([1]; solvent CH2Cl2) [mg/mL] | solubility in CH3CN ([1]; solvent CH3CN) [mg/mL] | solubility in DMF ([1]; solvent DMF) [mg/mL] | solubility in Hexane ([1]; solvent Hexane) [mg/mL] | solubility in THF ([1]; solvent THF) [mg/mL] | solubility in Toluene ([1]; solvent Toluene) [mg/mL] | solubility in the nonpolar solvents hexane and toluene compared with the BF4/PF6 analogue ([1]; hexane and toluene) | solubility [1, 2] [mg/mL] | solubility [1, 3] [mg/mL] | solubility [1, 4] [mg/mL] | solubility [1, 5] [mg/mL] | solubility [1, 6] [mg/mL] | solubility [1, 7] [mg/mL] | solubility [1, 8] [mg/mL] | melting point
S-(1-Oxido-2-pyridyl)-N,N,N′,N′-tetramethylthiouronium tris(pentafluoroethyl)trifluorophosphate [OTT-FAP] | >2000 | 690 | >2000 | >2000 | <1.2 | 1400 | <1.2 |  |  |  |  |  |  |  |  | 
CCOC(=O)C(C#N)=NO[C+](N(C)C)N1CCOCC1.F[P-](F)(F)(F)(F)F [COMU, (1-cyano-2-ethoxy-2-oxoethylideneaminooxy)dimethylaminomorpholinocarbenium hexafluorophosphate, reference compound] |  |  |  |  |  |  |  |  | 294 | 82 | 565 | 530 | < 1.2 | 4.1 | 3.2 | 
CN(C)C(n1n[n+]([O-])c2ccccc21)=[N+](C)C.F[P-](F)(F)(F)(F)F [HBTU, 1-(dimethylamino(dimethylamonium-1-ylidene)methyl)-1H-benzo[d][1,2,3]triazole 3-oxide hexafluorophosphate, reference compound] | <2.8 | <1.1 | 124 | 200 | <1.2 | <3.6 | <1.2 |  |  |  |  |  |  |  |  | 
CN(C)C(On1nnc2ccccc2c1=O)=[N+](C)C.F[B-](F)(F)F [HDBTU, O-(3,4-dihydro-4-oxo-1,2,3-benzotriazin-3-yl)-N,N,N′,N′-tetramethyluronium tetrafluoroborate, reference compound] |  |  |  |  |  |  |  |  | 17 | 3.75 | 240 | 250 | < 1.2 | < 3.3 | < 1.2 | 
F[P-](F)(F)(F)(F)F.[O-][n+]1nn(C(N2CCCC2)=[N+]2CCCC2)c2ccccc21 [HBPyU, 1-(pyrrolidino(pyrrolidinium-1-ylidene)methyl)-1H-benzo-[d][1,2,3]triazole 3-oxide hexafluorophosphate, reference compound] |  |  |  |  |  |  |  |  | 118 | 68.3 | 510 | 540 | < 1.2 | < 3.3 | < 1.2 | 
CN(C)[P+](On1nnc2ccccc21)(N(C)C)N(C)C.F[P-](F)(F)(F)(F)F [BOP, (benzotriazol-1-yloxy)tris(dimethylamino)phosphonium hexafluorophosphate, reference compound] |  |  |  |  |  |  |  |  | > 335 | > 380 | 510 | 660 | < 1.2 | < 4.2 | < 1.2 | 
CN(C)C(Oc1c(F)c(F)c(F)c(F)c1F)=[N+](C)C.F[P-](F)(F)(F)(F)F [PfTU, O-pentafluorophenyl-N,N,N′,N′-tetramethyluronium hexafluorophosphate, reference compound] | 2.5 | <1.2 | 1000 | 1000 | <1.2 | <1.2 | <1.2 |  |  |  |  |  |  |  |  | 
(Benzotriazol-1-yloxy)tris(dimethylamino)phosphonium tris(pentafluoroethyl)trifluorophosphate [BOP-FAP] | >800 | >1040 | >700 | >1100 | <1.2 | >1200 | <1.2 |  |  |  |  |  |  |  |  | 
F[P-](F)(F)(F)(F)F.c1cnc2c(c1)nnn2O[P+](N1CCCC1)(N1CCCC1)N1CCCC1 [PyAOP, (7-azabenzotriazol-1-yloxy)tris(pyrrolidino)phosphonium hexafluorophosphate, reference compound] |  |  |  |  |  |  |  |  | 670 | 1000 | 1000 | 670 | < 1.2 | 6 | < 1.2 | 
[O-][n+]1nn(C(N2CCCC2)=[N+]2CCCC2)c2ccccc21 (as salt: phosphate) [BPyU-FAP, 1-(Pyrrolidino(pyrrolidinium-1-ylidene)methyl)-1H-benzo[d]-1,2,3-triazole 3-oxide tris(pentafluoroethyl)trifluorophosphate] |  |  |  |  |  |  |  |  |  |  |  |  |  |  |  | 173 °C (dec.)
(7-Azabenzotriazol-1-yloxy)tris(pyrrolidino)phosphonium tris(pentafluoroethyl)trifluorophosphate [PyAOP-FAP] | >2000 | >2000 | >2000 | >2000 | <1.2 | >2000 |  |  |  |  |  |  |  |  |  | 
[O-][n+]1nn(C(N2CCCC2)=[N+]2CCCC2)c2ccccc21 [BPyU-FAP, 1-(Pyrrolidino(pyrrolidinium-1-ylidene)methyl)-1H-benzo[d]-1,2,3-triazole 3-oxide tris(pentafluoroethyl)trifluorophosphate] |  |  |  |  |  |  |  |  | 190 | 57 | > 1020 | > 1100 | < 1.2 | 510 | < 1.2 | 
CN(C)C(Sc1cccc[n+]1[O-])=[N+](C)C.F[P-](F)(F)(F)(F)F [HOTT, S-(1-oxido-2-pyridyl)-N,N,N′,N′-tetramethylthiouronium hexafluorophosphate, reference compound] |  |  |  |  |  |  |  |  | 180 | 59 | 810 | 690 | < 1.2 | < 1.2 | < 1.2 | 
